Measurements taken from ChEMBL document CHEMBL5728053, “Dihydropyrrolopyridine inhibitors of ROR-gamma” (2020).

Target: T1, Nuclear receptor ROR-gamma (Homo sapiens, UniProt P51449)
T1 sequence (P51449 whole entry): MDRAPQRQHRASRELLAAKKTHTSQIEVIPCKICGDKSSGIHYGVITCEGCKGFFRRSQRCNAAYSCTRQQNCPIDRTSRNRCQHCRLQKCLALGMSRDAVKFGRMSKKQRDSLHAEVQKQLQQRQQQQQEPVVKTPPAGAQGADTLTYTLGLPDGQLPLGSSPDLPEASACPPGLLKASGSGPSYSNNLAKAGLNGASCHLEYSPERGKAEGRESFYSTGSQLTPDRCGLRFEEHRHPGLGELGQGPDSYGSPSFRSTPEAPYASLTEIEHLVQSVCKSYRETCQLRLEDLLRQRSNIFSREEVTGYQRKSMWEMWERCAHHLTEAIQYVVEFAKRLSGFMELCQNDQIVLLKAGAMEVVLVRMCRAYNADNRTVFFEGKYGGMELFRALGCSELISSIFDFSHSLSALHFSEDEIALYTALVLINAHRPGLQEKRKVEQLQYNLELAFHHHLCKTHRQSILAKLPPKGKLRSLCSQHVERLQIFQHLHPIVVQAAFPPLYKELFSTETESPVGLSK
Experiment: RORgammat 5xRORE Assay in Jurkat Cells (Assay 2) : Compounds of the present invention were tested for RORγ inverse agonist activity in a cell-based, transcriptional activity assay. […] (Promega, Cat. # N1021) using KpnI and HindIII restriction sites. […] Luciferase activity in the conditioned supernatants was determined with NanoGlo® assay reagents (Promega, Cat. # N1130).

CCS(=O)(=O)c1ccc(CNC(=O)c2cnc3c(c2)C(=O)N(Cc2ccc(Cl)cc2)[C@H]3C(C)C)cc1 showed an IC50 of 100 to 1000 nM.
